# Test results from BindingDB's records for patent US20230382904 (The Johns Hopkins University, 2023).
# Assays:
# [1] = molecular target: T1, Mitogen-activated protein kinase kinase kinase 12 (Homo sapiens, UniProt Q12852); assay: DLK Biochemical Assay
# T1 sequence (Q12852 whole entry): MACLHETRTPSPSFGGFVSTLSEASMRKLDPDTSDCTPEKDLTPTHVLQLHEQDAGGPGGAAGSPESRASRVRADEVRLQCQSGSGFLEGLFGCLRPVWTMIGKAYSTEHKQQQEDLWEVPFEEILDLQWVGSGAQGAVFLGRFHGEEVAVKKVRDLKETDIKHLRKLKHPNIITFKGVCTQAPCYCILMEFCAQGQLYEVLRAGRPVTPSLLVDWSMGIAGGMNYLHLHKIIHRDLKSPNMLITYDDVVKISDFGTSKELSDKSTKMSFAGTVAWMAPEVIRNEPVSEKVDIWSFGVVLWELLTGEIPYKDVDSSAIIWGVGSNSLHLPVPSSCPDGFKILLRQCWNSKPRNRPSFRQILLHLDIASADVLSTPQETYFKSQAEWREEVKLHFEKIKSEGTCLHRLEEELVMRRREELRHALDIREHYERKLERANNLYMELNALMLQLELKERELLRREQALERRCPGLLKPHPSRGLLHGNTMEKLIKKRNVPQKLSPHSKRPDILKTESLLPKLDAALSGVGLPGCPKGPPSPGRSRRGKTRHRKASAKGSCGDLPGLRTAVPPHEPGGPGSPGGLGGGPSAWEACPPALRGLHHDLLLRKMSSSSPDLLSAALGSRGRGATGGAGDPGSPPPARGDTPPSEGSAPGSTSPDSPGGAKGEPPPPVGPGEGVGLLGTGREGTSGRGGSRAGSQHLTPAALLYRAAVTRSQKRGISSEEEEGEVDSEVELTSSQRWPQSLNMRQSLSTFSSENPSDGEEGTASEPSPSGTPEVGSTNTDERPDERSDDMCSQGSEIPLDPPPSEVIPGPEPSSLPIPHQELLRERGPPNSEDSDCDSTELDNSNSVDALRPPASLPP
# [2] = molecular target: T2, Mitogen-activated protein kinase kinase kinase 13 (Homo sapiens, UniProt O43283); assay: LZK Biochemical Assay
# T2 sequence (O43283 whole entry): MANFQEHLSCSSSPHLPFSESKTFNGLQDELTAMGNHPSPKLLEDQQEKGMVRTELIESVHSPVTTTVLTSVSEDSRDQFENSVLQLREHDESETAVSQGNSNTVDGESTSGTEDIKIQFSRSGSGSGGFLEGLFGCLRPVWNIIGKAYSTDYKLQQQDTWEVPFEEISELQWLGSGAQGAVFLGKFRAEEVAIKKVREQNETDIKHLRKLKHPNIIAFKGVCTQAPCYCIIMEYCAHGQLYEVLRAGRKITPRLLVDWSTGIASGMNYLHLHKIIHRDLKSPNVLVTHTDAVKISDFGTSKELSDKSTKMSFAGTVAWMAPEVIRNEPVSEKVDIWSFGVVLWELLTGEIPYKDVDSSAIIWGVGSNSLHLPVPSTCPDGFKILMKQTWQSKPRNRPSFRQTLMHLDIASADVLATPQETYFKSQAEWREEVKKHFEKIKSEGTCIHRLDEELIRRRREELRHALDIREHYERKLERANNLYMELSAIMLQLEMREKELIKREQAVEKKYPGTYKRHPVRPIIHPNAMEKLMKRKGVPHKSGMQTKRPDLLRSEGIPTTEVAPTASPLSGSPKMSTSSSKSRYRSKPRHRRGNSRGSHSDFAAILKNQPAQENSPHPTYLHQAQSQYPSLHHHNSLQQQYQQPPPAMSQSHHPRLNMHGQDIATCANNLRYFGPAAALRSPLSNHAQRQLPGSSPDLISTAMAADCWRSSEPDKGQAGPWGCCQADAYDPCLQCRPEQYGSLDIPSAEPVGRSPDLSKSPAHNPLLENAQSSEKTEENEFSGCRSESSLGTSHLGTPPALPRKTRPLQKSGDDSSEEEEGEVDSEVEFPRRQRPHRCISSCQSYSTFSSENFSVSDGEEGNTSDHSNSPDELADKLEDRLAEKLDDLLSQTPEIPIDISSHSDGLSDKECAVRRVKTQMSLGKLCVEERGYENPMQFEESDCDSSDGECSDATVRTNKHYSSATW
# Experimental: All indicated concentrations final concentrations. […] Detection buffer: 25 mM Tris/HCl pH 7.5, 100 mM EDTA, 100 mM NaCl, 200 mM KF, 0.01% Tween 20, 1:500 Smart Block.
smiles,measurement,setting,value
"COC[C@H](NC(=O)c1cc(-c2cc(C(=O)NC(C)C)n3nc(N)nc3c2)cs1)c1ccccc1 [US20230382904, Compound 155]",IC50,[1],4.3 nM
same,IC50,[2],41 nM
